Consider two compounds from ChEMBL document CHEMBL3124913, “Sinugyrosanolide A, an unprecedented C-4 norcembranoid, from the Formosan soft coral Sinularia gyrosa” (Bioorg Med Chem Lett, 2014).

Activity calls are given as the source filed them. The rule behind the calls is not given here.

In one assay the test system is Yersinia enterocolitica. Nature of the assay: Antibacterial activity against Yersinia enterocolitica ATCC 23715 at 100 ug/ml after 24 hrs. In kind it is functional, organism-based.
A further assay concerns Shigella sonnei. The assay is described as follows: Antibacterial activity against Shigella sonnei ATCC 11060 at 100 ug/ml after 24 hrs. The format is functional, organism-based.
A further assay relates to Serratia marcescens. Nature of the assay: Antibacterial activity against Serratia marcescens ATCC 25419 at 100 ug/ml after 24 hrs. In kind it is functional, organism-based.
A further assay deals with Salmonella enteritidis. The assay is described as follows: Antibacterial activity against Salmonella enteritidis ATCC 13076 at 100 ug/ml after 24 hrs. The format is functional, organism-based. The settings on record: Salmonella enterica subsp. enterica serovar Enteritidis.
Another assay has as its system Klebsiella aerogenes. The assay is described as follows: Antibacterial activity against Enterobacter aerogenes ATCC 13048 at 100 ug/ml after 24 hrs. In kind it is functional, organism-based.
Assay [1] relates to Human betaherpesvirus 5. Nature of the assay: Antiviral activity against Human cytomegalovirus infected in Human HEL cells assessed as virus-induced cytopathic effect treated 1 hr prior to infection measured after 7 days. The format is functional, organism-based. The following applies: Human betaherpesvirus 5, HEL. On the technique in general: Damage to the host cells serves as the signal in cytopathic effect assays.

The subject of assay [2] is Human betaherpesvirus 5. The assay is described as follows: Antiviral activity against Human cytomegalovirus infected in Human HEL cells assessed as virus-induced cytopathic effect at 1 ug/ml treated 1 hr prior to infection measured after 7 days. The format is functional, organism-based.
For a further assay, the system named is A549. Nature of the assay: Cytotoxicity against human A549 cells by MTT assay. The format is functional, cell-based.
The subject of another assay is HT-29. The assay is described as follows: Cytotoxicity against human HT-29 cells by MTT assay. The format is functional, cell-based.
Another assay deals with P388. Nature of the assay: Cytotoxicity against mouse P388 cells by MTT assay. In kind it is functional, cell-based.

With `C=C(C)[C@@H]1CC(=O)C[C@H]2C(=O)[C@@H]3[C@@H]4C(=C[C@@H]12)C(=O)O[C@@H]4C[C@]3(C)O`, the outcome in the assay with Yersinia enterocolitica, in the assay on Shigella sonnei, with Serratia marcescens, in the assay on Salmonella enteritidis, with Klebsiella aerogenes and in the assay with Human betaherpesvirus 5 [2] was inactive. The EC50 – broadly, the concentration giving half of the maximal effect – is over 50 µg/mL with Human betaherpesvirus 5 [1], over 20000 nM in the assay on A549, over 20000 nM with HT-29 and 11800 nM in the assay on P388.
With `CO[C@H](C(=O)[C@@H](O)[C@@H](C)O)[C@@H]1Cc2cc3cc(O[C@H]4C[C@@H](O[C@@H]5C[C@@H](O)[C@H](O)[C@@H](C)O5)[C@H](O)[C@@H](C)O4)c(C)c(O)c3c(O)c2C(=O)[C@H]1O[C@H]1C[C@@H](O[C@@H]2C[C@@H](O)[C@@H](O[C@@H]3C[C@](C)(O)[C@H](O)[C@@H](C)O3)[C@@H](C)O2)[C@H](O)[C@@H](C)O1` [PLICAMYCIN], the results for the EC50 with A549, with HT-29 and with P388 were 60 nM, 70 nM and 50 nM, respectively.
